According to PubChem BioAssay AID743486 (Broad Institute, 2014):
Activity calls are given as the source filed them. No rule for the calls is given here.

The molecules below were run on Mycobacterium tuberculosis starved, CFU imaging (assay: M. tuberculosis CFU reduction, CFU imaging, dry powder, dose response (AID 743486)).

Row | Compound | AC90
1 | Cn1c(NC(=O)c2ccccc2)nc2c3ncccc3ccc21 | > 64 µM (inactive)
2 | Cn1c(NC(=O)c2ccccc2)nc2c3nccnc3ccc21 | > 64 µM (inactive)
3 | Cn1c(NC(=O)c2ccccc2)nc2c3ccncc3ccc21 | < 64 µM
4 | Cn1c(NC(=O)c2ccccc2)nc2c3cnccc3ccc21 | < 32 µM
